According to the NIST ThermoML archive (doi:10.1016/j.fluid.2009.11.007):
Numbers after ± are expanded uncertainties.

Test: xn = mol fraction of the nth substance listed
Details: Gas, Vibrating tube method

CCCCCCCCCCCCCCCC(=O)O [hexadecanoic acid] + O=C=O
Details | mass density [kg/m3]
313 K, 12110 kPa, x1 = 0.0003534 | 724.5 ± 1
313 K, 12150 kPa, x1 = 0.0003534 | 725.8 ± 1
313 K, 12360 kPa, x1 = 0.0003534 | 731.2 ± 0.5
313 K, 12530 kPa, x1 = 0.0003534 | 735.3 ± 0.5
313 K, 12770 kPa, x1 = 0.0003534 | 741 ± 0.5
313 K, 12930 kPa, x1 = 0.0003534 | 744.7 ± 0.5
313 K, 13150 kPa, x1 = 0.0003534 | 749.3 ± 0.5
313 K, 13330 kPa, x1 = 0.0003534 | 753 ± 0.5
313 K, 13680 kPa, x1 = 0.0003534 | 759.8 ± 0.5
313 K, 13940 kPa, x1 = 0.0003534 | 764.4 ± 0.5
313 K, 14120 kPa, x1 = 0.0003534 | 767.7 ± 0.5
313 K, 14410 kPa, x1 = 0.0003534 | 772.7 ± 0.5
313 K, 14570 kPa, x1 = 0.0004968 | 774.5 ± 0.5
313 K, 14650 kPa, x1 = 0.0003534 | 776.6 ± 0.5
313 K, 14940 kPa, x1 = 0.0005357 | 780.5 ± 0.4
313 K, 14960 kPa, x1 = 0.0004968 | 780.9 ± 0.5
313 K, 15030 kPa, x1 = 0.0003534 | 782.7 ± 0.5
313 K, 15570 kPa, x1 = 0.0003534 | 790.5 ± 0.5
313 K, 15970 kPa, x1 = 0.0004968 | 795.6 ± 0.5
313 K, 16020 kPa, x1 = 0.0005357 | 795.7 ± 0.6
313 K, 16050 kPa, x1 = 0.0003534 | 797 ± 0.5
313 K, 16230 kPa, x1 = 0.0005357 | 798.5 ± 0.5
313 K, 16430 kPa, x1 = 0.0005357 | 801.3 ± 0.5
313 K, 16610 kPa, x1 = 0.0005357 | 803.4 ± 0.5
313 K, 16820 kPa, x1 = 0.0005357 | 806 ± 0.5
313 K, 17030 kPa, x1 = 0.0005357 | 808.5 ± 0.5
313 K, 17040 kPa, x1 = 0.0003534 | 810.1 ± 0.5
313 K, 17070 kPa, x1 = 0.0006302 | 809.1 ± 0.5
313 K, 17120 kPa, x1 = 0.0004968 | 810 ± 0.5
313 K, 17500 kPa, x1 = 0.0006302 | 814.3 ± 0.5
313 K, 17610 kPa, x1 = 0.0006348 | 816.9 ± 0.5
313 K, 17620 kPa, x1 = 0.0004968 | 815.9 ± 0.5
313 K, 17810 kPa, x1 = 0.0006348 | 819 ± 0.5
313 K, 17970 kPa, x1 = 0.0006302 | 819.5 ± 0.5
313 K, 18010 kPa, x1 = 0.0006348 | 821 ± 0.5
313 K, 18030 kPa, x1 = 0.0003534 | 821.3 ± 0.5
313 K, 18050 kPa, x1 = 0.0004968 | 820.6 ± 0.5
313 K, 18070 kPa, x1 = 0.0005357 | 820 ± 0.5
313 K, 18180 kPa, x1 = 0.0006348 | 823.1 ± 0.5
313 K, 18300 kPa, x1 = 0.0006348 | 824.3 ± 0.5
313 K, 18400 kPa, x1 = 0.0006348 | 825.2 ± 0.6
313 K, 18510 kPa, x1 = 0.0006348 | 826.4 ± 0.6
313 K, 18600 kPa, x1 = 0.0006348 | 827.4 ± 0.5
313 K, 18700 kPa, x1 = 0.0006348 | 828.4 ± 0.5
313 K, 18790 kPa, x1 = 0.0006348 | 829.4 ± 0.5
313 K, 18910 kPa, x1 = 0.0006348 | 830.6 ± 0.5
313 K, 18990 kPa, x1 = 0.0006302 | 830.2 ± 0.6
313 K, 19000 kPa, x1 = 0.0004968 | 830.5 ± 0.6
313 K, 19040 kPa, x1 = 0.0003534 | 831.8 ± 0.6
313 K, 19070 kPa, x1 = 0.0005357 | 830.9 ± 0.5
313 K, 19070 kPa, x1 = 0.0006348 | 832.2 ± 0.5
313 K, 19960 kPa, x1 = 0.0004968 | 839.8 ± 0.6
313 K, 19990 kPa, x1 = 0.0006302 | 839.7 ± 0.6
313 K, 20050 kPa, x1 = 0.0003534 | 841.4 ± 0.6
313 K, 20060 kPa, x1 = 0.0005357 | 840.4 ± 0.6
313 K, 20090 kPa, x1 = 0.0006348 | 841.8 ± 0.6
313 K, 20150 kPa, x1 = 0.0007923 | 843.3 ± 0.6
313 K, 20300 kPa, x1 = 0.0007923 | 844.6 ± 0.6
313 K, 20540 kPa, x1 = 0.0007923 | 846.7 ± 0.6
313 K, 20740 kPa, x1 = 0.0007923 | 848.5 ± 0.6
313 K, 20940 kPa, x1 = 0.0007923 | 850.2 ± 0.6
313 K, 21000 kPa, x1 = 0.0006302 | 848.7 ± 0.4
313 K, 21010 kPa, x1 = 0.0006348 | 849.8 ± 0.4
313 K, 21020 kPa, x1 = 0.0004968 | 849.3 ± 0.6
313 K, 21040 kPa, x1 = 0.0003534 | 850.3 ± 0.6
313 K, 21050 kPa, x1 = 0.0005357 | 849.1 ± 0.6
313 K, 21120 kPa, x1 = 0.0007923 | 851.7 ± 0.6
313 K, 21300 kPa, x1 = 0.0007923 | 853.3 ± 0.6
313 K, 21520 kPa, x1 = 0.0007923 | 855 ± 0.7
313 K, 21700 kPa, x1 = 0.0008682 | 855 ± 0.7
313 K, 21710 kPa, x1 = 0.0007923 | 856.7 ± 0.6
313 K, 21970 kPa, x1 = 0.0007923 | 858.7 ± 0.6
313 K, 21980 kPa, x1 = 0.0003534 | 858 ± 0.6
313 K, 22020 kPa, x1 = 0.0004968 | 857.5 ± 0.6
313 K, 22020 kPa, x1 = 0.0006348 | 858.2 ± 0.6
313 K, 22020 kPa, x1 = 0.0008682 | 857.3 ± 0.6
313 K, 22030 kPa, x1 = 0.0005357 | 857.3 ± 0.6
313 K, 22050 kPa, x1 = 0.0006302 | 857.5 ± 0.6
313 K, 22230 kPa, x1 = 0.0007923 | 860.8 ± 0.6
313 K, 22470 kPa, x1 = 0.0008682 | 861 ± 0.6
313 K, 22650 kPa, x1 = 0.0007923 | 864 ± 0.6
313 K, 22790 kPa, x1 = 0.0004968 | 863.5 ± 0.6
313 K, 22910 kPa, x1 = 0.0007923 | 865.9 ± 0.6
313 K, 22930 kPa, x1 = 0.0008981 | 864.8 ± 0.7
313 K, 22990 kPa, x1 = 0.0003534 | 866 ± 0.6
313 K, 23000 kPa, x1 = 0.0006302 | 864.9 ± 0.6
313 K, 23030 kPa, x1 = 0.0005357 | 865.1 ± 0.6
313 K, 23050 kPa, x1 = 0.0006348 | 866 ± 0.6
313 K, 23070 kPa, x1 = 0.0008682 | 865.7 ± 0.5
313 K, 23280 kPa, x1 = 0.0008981 | 867.3 ± 0.6
313 K, 23520 kPa, x1 = 0.0007923 | 868.9 ± 0.6
313 K, 23550 kPa, x1 = 0.0008682 | 869.1 ± 0.6
313 K, 23570 kPa, x1 = 0.0008981 | 869.5 ± 0.6
313 K, 23790 kPa, x1 = 0.0006348 | 871.5 ± 0.6
313 K, 23810 kPa, x1 = 0.0008981 | 871.1 ± 0.6
313 K, 23990 kPa, x1 = 0.0005357 | 872.2 ± 0.6
313 K, 24000 kPa, x1 = 0.0006302 | 872.3 ± 0.6
313 K, 24010 kPa, x1 = 0.0004968 | 872.7 ± 0.6
313 K, 24010 kPa, x1 = 0.0008981 | 872.6 ± 0.5
313 K, 24020 kPa, x1 = 0.0007923 | 871.6 ± 0.6
313 K, 24040 kPa, x1 = 0.0008682 | 872.7 ± 0.6
313 K, 24050 kPa, x1 = 0.0003534 | 873.7 ± 0.6
313 K, 24460 kPa, x1 = 0.0008682 | 875.8 ± 0.6
313 K, 24640 kPa, x1 = 0.0005357 | 876.7 ± 0.7
313 K, 24740 kPa, x1 = 0.0006302 | 877.4 ± 0.6
313 K, 24780 kPa, x1 = 0.0008981 | 877.9 ± 0.6
313 K, 25030 kPa, x1 = 0.0004968 | 879.6 ± 0.7
318 K, 10140 kPa, x1 = 0.0001436 | 535.9 ± 1.3
318 K, 10290 kPa, x1 = 0.0001436 | 551.9 ± 1.3
318 K, 10550 kPa, x1 = 0.0001436 | 577.8 ± 1.2
318 K, 10890 kPa, x1 = 0.0001436 | 604.2 ± 1.2
318 K, 11230 kPa, x1 = 0.0001436 | 626.2 ± 1.2
318 K, 11520 kPa, x1 = 0.0001436 | 641.2 ± 1.2
318 K, 11870 kPa, x1 = 0.0001436 | 657.3 ± 1.2
318 K, 12190 kPa, x1 = 0.0001436 | 670.6 ± 1.2
318 K, 12480 kPa, x1 = 0.0001436 | 680.9 ± 1.2
318 K, 12820 kPa, x1 = 0.0001436 | 692 ± 1.2
318 K, 13110 kPa, x1 = 0.0001436 | 700.3 ± 1.2
318 K, 13390 kPa, x1 = 0.0001436 | 708.3 ± 1.3
318 K, 13730 kPa, x1 = 0.0001436 | 716.8 ± 1.3
318 K, 14030 kPa, x1 = 0.0001436 | 723.9 ± 1.3
318 K, 14520 kPa, x1 = 0.0001436 | 734.8 ± 1.3
318 K, 14990 kPa, x1 = 0.0001436 | 744 ± 1.3
318 K, 16050 kPa, x1 = 0.0001436 | 762.8 ± 0.6
318 K, 17010 kPa, x1 = 0.0001436 | 777.4 ± 0.6
318 K, 17690 kPa, x1 = 0.0001436 | 786.8 ± 0.5
318 K, 18080 kPa, x1 = 0.0001436 | 791.8 ± 0.5
318 K, 18990 kPa, x1 = 0.0001436 | 802.8 ± 0.5
318 K, 19750 kPa, x1 = 0.0001436 | 811.4 ± 0.5
318 K, 21720 kPa, x1 = 0.001828 | 831.3 ± 0.5
318 K, 21990 kPa, x1 = 0.001828 | 833.9 ± 0.5
318 K, 22510 kPa, x1 = 0.001828 | 838.4 ± 0.5
318 K, 23010 kPa, x1 = 0.001828 | 842.7 ± 0.5
318 K, 23350 kPa, x1 = 0.001112 | 845.5 ± 0.6
318 K, 23520 kPa, x1 = 0.001828 | 846.9 ± 0.6
318 K, 23920 kPa, x1 = 0.001112 | 849.8 ± 0.6
318 K, 24050 kPa, x1 = 0.001112 | 850.8 ± 0.6
318 K, 24050 kPa, x1 = 0.001828 | 850.9 ± 0.6
318 K, 24090 kPa, x1 = 0.001112 | 851.1 ± 0.6
318 K, 24270 kPa, x1 = 0.001112 | 852.5 ± 0.6
318 K, 24430 kPa, x1 = 0.001112 | 853.7 ± 0.6
318 K, 24510 kPa, x1 = 0.001112 | 854.2 ± 0.6
318 K, 24560 kPa, x1 = 0.001828 | 854.7 ± 0.6
318 K, 24610 kPa, x1 = 0.001112 | 855 ± 0.6
318 K, 24770 kPa, x1 = 0.001112 | 856.3 ± 0.6
318 K, 24930 kPa, x1 = 0.001112 | 857.5 ± 0.6
318 K, 25040 kPa, x1 = 0.001112 | 858.3 ± 0.6
